Results reported in patent publication US20030022821A1, “Bioactive peptides” (priority 1998, published 2003).
Values after ≈ are worked out from the molar mass of the structure shown. Read-outs that look alike come from different tables or passages of the source.

Legend:
[1] = test system: Escherichia coli ATCC 25922; assay type: cell-based
In short: (§1)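 Inoculum of 2×10^6 CFU/ml, mid-logarithmic growth phase, in 1% Bacto Peptone water; standard microdilution, performed in triplicate.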

[2] = test system: Staphylococcus aureus ATCC 25923; assay type: cell-based
In short: as §1

[3] = test system: human red blood cells; experiment: Hemolytic assay; assay type: cell-based; conditions: red cells of human
[4] = assay type: physicochemical
Description: Peptide W3714, with three additional tryptophan residues (a total of five tryptophan residues in the peptide), has decreased activity. […] This has been physically observed during MIC testing procedures when the peptide tended to precipitate at high concentrations.

[5] = test system: Meth A cells (murine sarcoma cell line); experiment: Cytotoxicity on Meth A cells, MTT method
Procedure: Peptide solutions (0.1 ml) were added and the plates incubated at 37° C. for 30 minutes, 4 hours or 24 hours. The cytotoxicity was measured using the MTT method (Mosmann et al., J. Immunol. (1986) 136, 2348-2357).
Cells in the growth phase were harvested and washed in fresh medium and injected subcutaneously into the abdominal region of the mice.
The cytotoxic effect of the peptides on different murine and human tumor cells were measured using the MTT method (Mosmann et al., J. Immunol. (1986) 136, 2348-2357). MTT is a soluble tetrazolium salt yielding a yellow solution when prepared in media or salt solutions lacking phenol red. Dissolved MTT is converted to an insoluble purple formazan by cleavage of the tetrazolium ring by dehydrogenase enzymes. This water insoluble formazan can be solubilized using isopropanol or other solvents and the dissolved material is measured spectrophotometrically. The absorbance was measured as a function of concentration of converted dye.
Cells were maintained in […] medium containing 10% FBS, 1% L-glutamine and 0.1% penicillin and streptomycin. Cells to be used in the assay were grown to confluency, trypsinated and split to single cell suspension, counted and centrifuged at 1500 rpm for 10 min. […][…] of cell suspension was transferred to each well on a 96-well microtiter plate. The cells were stimulated by adding […] of various concentrations of peptides diluted with assay medium to each well. The final concentrations of peptide were for example: 5, 10, 20, 40, 60, 80, 100, and 200 mg/ml. […] As a negative control only medium was added to the cells, and as a positive control (100% killing) 1% triton X-100 was added. Following an incubation period of 4 h., 20 ml MTT dissolved in PBS at a concentration of 5 mg/ml was added to each well, and the plate was incubated further for 2 h. 130 ml of the supernatant were then removed and […] acid alcohol (0.04-0.1 N HCl in isopropanol) added to each well to dissolve the dark blue crystals. The plate was placed on a shaker for 1 h and read spectrophotometrically at 590 nm in a microtiterplate reader using the Softmaxâ program.

[6] = test system: human promyelotic leukemia cell line HL 60; experiment: Cytotoxicity on HL 60 cells, MTT; assay type: cell-based
[7] = test system: Meth A tumors; experiment: Tumor regression, murine Meth A fibrosarcoma; assay type: in vivo, mice; conditions: for regression of Meth A tumors: injected intratumorally, treatment on day 7 and 10
Procedure: Specific pathogen-free CB6F1 (Balb/c×C57 BL/6) female mice of about 8 weeks of age were obtained from Charles River (Germany). The mice were kept on standard laboratory chow and water. Tumor bearing mice were serologically screened for viral (LDH, CMV) and mycoplasmic infection and in all cases tested negative.
After a single inoculation of 5×10^7 viable Meth A cells, different LF peptides were injected intratumorally (LFB-14-31, LFB 17-31 Pmc, 500 μg in a 50 μl dose; LFB 17-31, 1000 μg in a 50 μl dose), on day 7 and day 10. LFB 14-31 was also injected intraperitoneally (PBI), 500 μg/ml. Saline only was injected in the control mice (50 μl) (K1,K2,K3). The tumor diameter (mean of transversal and longitudinal) were measured with an electronic calipper.

**Q.** Which results are given for “H-FKWRRWWWRMKKLWA-OH [LFB W3, 7, 14, H2N-Phe-Lys-Trp-Arg-Arg-Trp-Trp-Trp-Arg-Met-Lys-Lys-Leu-Trp-Ala-COOH]”?
**A.** MIC E. coli ([1]; ATCC 25922): 20 µg/mL; MIC E. coli ([1]; Table 6): 20 µg/mL; MIC S. aureus ([2]; ATCC 25923): 20 µg/mL; MIC S. aureus ([2]; Table 6, unit assumed): 20 µg/mL; % Hemolysis 10 μg/ml [3]; 10: 4.02%; % Hemolysis 100 μg/ml [3]; 100: 66.1%; solubility in aqueous solutions [4]: less soluble in aquous solutions

**Q.** Which “MIC E. coli” value ([1]; ATCC 25922) does the source give for `CSCC[C@H](NC(=O)[C@H](CCCNC(=N)N)NC(=O)[C@H](Cc1c[nH]c2ccccc12)NC(=O)[C@H](CCC(N)=O)NC(=O)[C@H](Cc1c[nH]c2ccccc12)NC(=O)[C@H](CCCNC(=N)N)NC(=O)[C@H](CCCNC(=N)N)NC(=O)[C@H](CSCNC(C)=O)NC(=O)[C@H](CCCCN)NC(=O)[C@H](Cc1ccccc1)NC(=O)[C@H](Cc1c[nH]c2ccccc12)NC(=O)[C@H](CCC(=O)O)NC(=O)[C@@H]1CCCN1)C(=O)N[C@@H](CCCCN)C(=O)N[C@@H](CCCCN)C(=O)N[C@@H](CC(C)C)C(=O)NCC(=O)N[C@@H](C)C(=O)O` [LFB 14-31] here?
**A.** 70 µg/mL (≈ 28.2 µM)

**Q.** And the “MIC E. coli ATCC 25922” value ([1]; ATCC 25922)?
**A.** 70 µg/mL

**Q.** And the “MIC E. coli ATCC 25922” value ([1]; Table 1, value in brackets)?
**A.** 28 µM

**Q.** And the “MIC S. aureus” value ([2]; ATCC 25923)?
**A.** >250 µg/mL

**Q.** What about the “MIC S. aureus ATCC 25923” value ([2]; ATCC 25923) of the same compound?
**A.** 200 µg/mL

**Q.** What about the “MIC S. aureus ATCC 25923” value ([2]; Table 1, value in brackets) of the same compound?
**A.** 80 µM

**Q.** What about the EC50 [3] of the same compound?
**A.** > 404 µM

**Q.** What about the “MethA IC50” value ([5]; Table 7, peptide required to kill 50% of MethA cells) of the same compound?
**A.** no activity

**Q.** And the “cytotoxic effect on human HL 60 cells” value [6]?
**A.** no cytotoxic effect

**Q.** What about the “regression of Meth A tumors” value [7] of the same compound?
**A.** induced regression of the Meth A tumors

**Q.** What about the “eradication of Meth A tumors” value ([7]; treated intraperitoneally) of the same compound?
**A.** tumors were also eradicated

**Q.** What does the source list for `CSCC[C@H](NC(=O)[C@H](CCCNC(=N)N)NC(=O)[C@H](Cc1c[nH]c2ccccc12)NC(=O)[C@H](CCC(N)=O)NC(=O)[C@H](Cc1c[nH]c2ccccc12)NC(=O)[C@H](CCCNC(=N)N)NC(=O)[C@H](CCCNC(=N)N)NC(=O)[C@H](CSCNC(C)=O)NC(=O)[C@H](CCCCN)NC(=O)[C@@H](N)Cc1ccccc1)C(=O)N[C@@H](CCCCN)C(=O)N[C@@H](CCCCN)C(=O)N[C@@H](CC(C)C)C(=O)NCC(=O)N[C@@H](C)C(=O)O` [LFB 17-31, H2N-Phe-Lys-Cys-Arg-Arg-Trp-Gln-Trp-Arg-Met-Lys-Lys-Leu-Gly-Ala-COOH]?
**A.** MIC E. coli ATCC 25922 ([1]; Table 1, value in brackets): 20 µM; MIC E. coli ([1]; Table 3): 50 µg/mL (≈ 24.2 µM); MIC E. coli ([1]; Table 4): 50 µg/mL (≈ 24.2 µM); MIC E. coli ([1]; Table 6): 50 µg/mL (≈ 24.2 µM); MIC S. aureus ATCC 25923 ([2]; Table 1, value in brackets): 50 µM; MIC S. aureus ([2]; Table 3, unit assumed): 100 µg/mL (≈ 48.4 µM); MIC S. aureus ([2]; Table 4, unit assumed): 100 µg/mL (≈ 48.4 µM); MIC S. aureus ([2]; Table 6, unit assumed): 100 µg/mL (≈ 48.4 µM); cytotoxic effect on Meth A cells ([5]; 1 mg/ml, 4 hours incubation): weak effect; cytotoxic effect on Meth A cells ([5]; concentrations up to 1 mg/ml, ½ hour incubation): no significant cytotoxic effect; cytotoxic effect on human HL 60 cells ([6]; at the concentration tested, 4 hours): no cytotoxic effect; regression of Meth A tumors [7]: induced regression of the Meth A tumors
